Consider three molecules from patent US5318858A, “Antacid composition” (priority 1992, dated 1994).

Like-named read-outs stand apart in the source and are kept apart here.

Series [1] is described as follows: Acid neutralizing capacity (ANC) test and contribution of each active ingredient (21 C.F.R. 331). The format is physicochemical. The method, then: Acid Neutralizing Capacity
Reagent standardization: as disclosed above.
Temperature: as disclosed above.
pH meter: as disclosed above.
Test suspension: the composition of Ex 1 was well-mixed and exactly 16.0 g (one unit dose) were transferred into a 250 ml glass beaker; sufficient water was added to obtain a total volume of about 70 ml; the resulting suspension was then mixed by means of a magnetic stirrer at 300±30 rpm for one minute. […]
Calculation of the mEq value: the number of mEq of acid neutralized by the test suspension was calculated as follows: […]
an accurately measured volume of an aluminum phosphate suspension containing exactly 9.904 g of aluminum phosphate gel, corresponding to the amount present in a one unit dose (16 g) of the antacid composition of Ex 1, were placed into a 250 ml glass beaker; distilled water was added up to a volume of 70 ml and the resulting suspension was mixed by means of a magnetic stirrer at 300±30 rpm for one minute; […]
Calculation: the percent contribution of each active ingredient in the total antacid composition of Ex 1 was calculated as follows: [formula]

The nature of series [2]: Labelling of aluminum phosphate gel-containing antacid material with nuclide materials. The format is physicochemical. From the text: After testing several nuclide materials having suitable gamma energies in the range of from 60 to 500 keV, such as ^99m technetium-containing materials (^99m Tc-sulfur colloids, ^99m Tc-albumin microspheres, ^99m Tc-dimercaptosuccinic acid complexes, ^99m Tc-polyphosphates, -pyrophosphates and -diphosphonates), it appeared that ^99m Tc-hydroxymethylene diphosphonate (^99m Tc-HMDP) is the most suitable radiopharmaceutical material for labelling aluminum phosphate gel-containing antacid material.

The conditions of series [3]: oral, cited from earlier work.
The conditions of series [4]: 21 C.F.R. 331; cited from earlier work.

With `[O]=[Mg]` [MgO, magnesium oxide], the “contribution of active ingredient to ANC” value in series [1] (amount present in one unit dose of Ex 1) was 4.88 mEq. For the same molecule, the “percent contribution of active ingredient to total ANC” value in series [1] (relative to total antacid composition of Ex 1) came to 40%.

Take “^99m Tc-hydroxymethylene diphosphonate [^99m Tc-HMDP]”: the labelling efficiency entry in series [2] is “high labelling efficiency”. Also, the “adsorption onto the wall of the reaction vessels or tubes” value in series [2] (mainly glass) is on record as “substantially non-adsorbed”.

For the molecule sucralfate, the Al-adhesiveness duration is 3 to 4 h in series [3] (no ulceration) and “about 24 h” in series [3] (ulcerated sites of the gastric mucous membrane). In addition, the antacid properties result in series [4] is given as “devoid of any antacid properties”.
